Experiment: Cytotoxicity against human HepG2 cells assessed as reduction in cell viability incubated for 24 hrs by MTT assay
Format: toxicity, cell-based

With `C[C@@H]1CC(=O)c2c(O)cccc2[C@@H]1O` as the compound, how does the IC50 at 24 h read?
The IC50 at 24 h was 3000 µM.

With `CC1=CC(=O)c2c(O)cccc2C1=O` [PLUMBAGIN] as the compound, how does the IC50 at 24 h read?
Its IC50 at 24 h is 14 µM.

Which IC50 at 24 h does the source give for `C[C@@H]1CC(=O)c2c(O)cccc2[C@H]1O` here?
The IC50 at 24 h was 1000 µM.
